Measured values reported in ChEMBL document CHEMBL3352777, “Substituted thieno[2,3-b]thiophenes and related congeners: Synthesis, β-glucuronidase inhibition activity, crystal structure, and POM analyses” (Bioorg Med Chem, 2014).

What was measured:
[1] = target: Carbonic anhydrase (Homo sapiens) (UniProt P00918+P43166+P00915+P07451+P23280+O43570+Q9ULX7+Q16790+P22748+Q8N1Q1+Q9Y2D0+P35218); assay: Inhibition of carbonic anhydrase (unknown origin) at 500 uM; type: protein assay
Homo sapiens = organism: Homo sapiens; assay: Inhibition of alpha-chymotrypsin (unknown origin) using N-succinyl-L-phenylalanine-p-nitroanilide substrate at 500 uM
cells = conditions: Homo sapiens, PC-3, 48 h
Description: Cytotoxic activity against human PC3 cells after 48 hrs by MTT assay

[2] = Inhibition of buttermilk xanthine oxidase (unknown origin) incubated for 10 mins by spectrophotometry
[3] = target: T1, Beta-glucuronidase (Homo sapiens) (UniProt P08236); assay: Inhibition of beta-glucuronidase (unknown origin) at 500 uM using p-nitrophenyl-beta-D-glucuronide substrate incubated for 30 mins by spectrophotometry
T1 sequence (whole entry): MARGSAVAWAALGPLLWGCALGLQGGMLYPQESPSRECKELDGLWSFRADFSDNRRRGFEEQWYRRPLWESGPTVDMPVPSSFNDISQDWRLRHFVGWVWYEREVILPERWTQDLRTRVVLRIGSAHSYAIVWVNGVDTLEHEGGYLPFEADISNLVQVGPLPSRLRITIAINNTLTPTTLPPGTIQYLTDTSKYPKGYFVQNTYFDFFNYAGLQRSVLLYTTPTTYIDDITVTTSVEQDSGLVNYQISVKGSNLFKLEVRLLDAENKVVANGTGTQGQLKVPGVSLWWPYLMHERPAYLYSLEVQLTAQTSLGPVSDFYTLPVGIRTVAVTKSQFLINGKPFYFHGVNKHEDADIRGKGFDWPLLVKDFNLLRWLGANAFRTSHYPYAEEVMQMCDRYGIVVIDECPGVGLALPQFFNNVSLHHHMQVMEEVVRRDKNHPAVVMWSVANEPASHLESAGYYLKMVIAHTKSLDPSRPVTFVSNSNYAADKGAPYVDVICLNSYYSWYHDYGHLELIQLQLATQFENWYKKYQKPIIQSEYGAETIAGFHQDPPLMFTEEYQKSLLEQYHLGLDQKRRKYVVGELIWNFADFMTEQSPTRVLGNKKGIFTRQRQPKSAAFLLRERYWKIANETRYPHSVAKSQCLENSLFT

[4] = Inhibition of alpha-chymotrypsin (unknown origin) using N-succinyl-L-phenylalanine-p-nitroanilide substrate; design: species or system Homo sapiens
Carbonic anhydrase = assay: Inhibition of carbonic anhydrase (unknown origin); type: protein assay, Homo sapiens
[5] = Inhibition of buttermilk xanthine oxidase (unknown origin) at 500 uM incubated for 10 mins by spectrophotometry

inhibition [1] | inhibition (Homo sapiens) | IC50 (cells) | Structure (SMILES) | further results
< 50% | < 50% | > 30 µM | Cc1c(C(=O)/C=C/N(C)C)sc2sc(C(=O)c3ccc(-c4sc5sc(C(=O)/C=C/N(C)C)c(-c6ccccc6)c5c4C)nc3)c(-c3ccccc3)c12 | 
 |  | 0.912 µM | COc1cccc2c1C(=O)c1c(O)c3c(c(O)c1C2=O)C[C@@](O)(C(=O)CO)C[C@@H]3O[C@H]1C[C@H](N)[C@H](O)[C@H](C)O1 [DOXORUBICIN] | 
 |  | 2.61 µM | Cc1c(C(=O)c2cc(C#N)c(=N)n(-c3ccccc3)n2)sc2sc(C(=O)c3cc(C#N)c(=N)n(-c4ccccc4)n3)c(-c3ccccc3)c12 | 
< 50% | < 50% | > 30 µM | CCOC(/C=C/C(=O)c1sc2sc(C(=O)/C=C/C(OCC)(OCC)OCC)c(-c3ccccc3)c2c1C)(OCC)OCC | 
< 50% |  | > 30 µM | Cc1c(/C(=C/C=C(\C#N)C(N)=O)N(C)C)sc2sc(/C(=C/C=C(\C#N)C(N)=O)N(C)C)c(-c3ccccc3)c12 | IC50 [2]: 43.1 µM
 | < 50% | > 30 µM | CCOC(=O)c1nn(-c2ccccc2)cc1C(=O)c1sc2sc(C(=O)c3cn(-c4ccccc4)nc3C(=O)OCC)c(-c3ccccc3)c2c1C | inhibition [3]: < 50%
 |  | > 30 µM | Cc1c(C(/C=C/N(C)C)=C(C#N)C#N)sc2sc(C(/C=C/N(C)C)=C(C#N)C#N)c(-c3ccccc3)c12 | IC50 [4]: 202 µM
 | < 50% | > 30 µM | CC(=C(C#N)C#N)c1sc2sc(C(C)=C(C#N)C#N)c(-c3ccccc3)c2c1C | IC50 (Carbonic anhydrase): 441.72 µM; inhibition [5]: < 50%
< 50% | < 50% | > 30 µM | Cc1c(C(=O)/C=C/N(C)C)sc2sc(C(=O)/C=C/N(C)C)c(-c3ccccc3)c12 | inhibition [5]: < 50%; inhibition [3]: < 50%
< 50% | < 50% | > 30 µM | Cc1c(C(=O)c2cc(C(=O)O)c(=O)[nH]n2)sc2sc(C(=O)c3cc(C(=O)O)c(=O)[nH]n3)c(-c3ccccc3)c12 | IC50 [2]: 121 µM
< 50% | < 50% | > 30 µM | CCOc1nc(-c2sc3sc(-c4ccc(C#N)c(OCC)n4)c(-c4ccccc4)c3c2C)ccc1C#N | IC50 [2]: 14.4 µM
 |  | > 30 µM | Cc1c(C(=O)/C=C/NO)sc2sc(C(=O)/C=C/NO)c(-c3ccccc3)c12 | 
< 50% | < 50% | > 30 µM | Cc1c(-c2ccc(C(=O)O)c(=O)[nH]2)sc2sc(-c3ccc(C(=O)O)c(=O)[nH]3)c(-c3ccccc3)c12 | inhibition [5]: < 50%
 |  |  | CC(C)C[C@H](NC(=O)[C@@H](NC(=O)N[C@@H](Cc1ccccc1)C(=O)O)C1CCNC(=N)N1)C(=O)N[C@H](C=O)Cc1ccccc1 (stereo partly drawn) [CHYMOSTATIN] | IC50 [4]: 5.7 µM
 |  |  | Oc1ncnc2[nH]ncc12 [ALLOPURINOL] | IC50 [2]: 2 µM
< 50% |  | > 30 µM | CC(=O)c1ccc(-c2sc3sc(-c4ccc(C(C)=O)c(C)n4)c(-c4ccccc4)c3c2C)nc1C | 
 |  |  | Cc1c(-c2ccc(C#N)c(=O)[nH]2)sc2sc(-c3ccc(C#N)c(=O)[nH]3)c(-c3ccccc3)c12 | IC50 (Carbonic anhydrase): 270.13 µM; inhibition [5]: < 50%
< 50% | < 50% | 13.8 µM | Cc1c(C(=O)/C(C=O)=N/Nc2ccccc2)sc2sc(C(=O)/C(C=O)=N/Nc3ccccc3)c(-c3ccccc3)c12 | inhibition [5]: < 50%
